Results on 7 compounds are retold here after patent publication US8637679B2, “Process for the isolation of organic compounds useful for the treatment of cancer” (Council of Scientific and Industrial Research, priority 2011, dated 2014).

As a reminder, the IC50 is the concentration needed to halve the response being measured.

Data set [1] relates to HeLa. As to the kind of experiment: 7-AAD flow cytometric apoptosis, HeLa. The data set is classed as cell-based, human. In general terms: A flow cytometer gives signals particle by particle.
Method: (§5) U87MG, LN229, HeLa, SiHa and ME180 (1×10^6 cells) cells were cultured in 6-well plates in presence or absence of Mahanine (25 μM) for 24 hrs. Cells were washed in PBS, incubated with 7-Aminoactinomycin D (7-AAD) at 4° C. for 20 min and processed. Data acquisition was done on a FACSCalibur flow cytometer (BD) at excitation wavelength at 488 nm and emission wavelength at 647 nm and analyzed with CellQuestPro software.
A further data set concerns ME180. Nature of the data set: 7-AAD flow cytometric apoptosis, ME180. To be noted: ME180, paclitaxel 10 μM alone. The data set is classed as cell-based, human.
Data set [2] has as its system glioma (T98G) and cervical (HeLa) cancer cells. As to the kind of experiment: Comparative cytotoxicity of mahanine and analogs by MTT. In kind it is cell-based, human. Particulars: MTT. The method, then: (§1) Human cervical cancer cell lines (HeLa, ME-180 and SiHa), brain tumor cell lines (U87MG, U373MG, U87MG EGFRvIII, T98G, A172 and LN229), lymphoid leukemia (MOLT-3, MOLT-4, REH and CEMC-7), myloid leukemia (K562), pancreatic cancer (MIAPaCa-2, AsPC-1, Panc-1 and Panc 10.05), lung cancer (A549) and colon cancer (HCT116 and SW480) cell lines from American Type Culture Collection, Manassas, Va., USA were grown in IMDM or RPMI (cell specific) Medium supplemented with 10% fetal bovine serum and 1% antibiotic-antimycotic. Cells were cultured in 37° C. in an atmosphere of 5% CO2.
(§2) Viability of cancer cell lines after treatment as at the indicated times was determined by MTT assay. Briefly, 10,000 cells were plated in triplicate in 96 well plates and incubated for 24 and 48 hours in complete media in presence of varying dose of mahanine (0-50 μM). 100 ug MTT was added in each well. Incubate the plate for 1-4 hours at 37° C. and humidified 5% CO2 atmosphere. Absorbance was recorded at 550 nm with 96 well plate readers.

A further data set concerns the target Hsp90α (Homo sapiens, UniProt P07900). Nature of the data set: γ-ATP sepharose binding assay, Hsp90α. Particulars: mahanine at 50 and 100 μM. On the procedure:
(§3) 5 μg of purified Hsp90α and Hsp90β were pre-incubated separately on ice with 200 μL incubation buffer (10 mM Tris-Hcl, 50 mM KCl, 5 mM MgCl2, 2 mM DTT, 20 mM Na2MoO4, 0.01% NP40, pH 7.5) containing mahanine or 17-AAG and incubated for 30 mins on ice. After the incubation, 25 μL pre-equilibrated γ-phosphate ATP sepharose added and again incubated at 37° C. with frequent agitation.
(§4) Sepharose subsequently washed and analyzed by SDS-PAGE. Then the blot was probed with anti Hsp90 antibody and developed by ECL.

In another data set the target is Hsp90β (Homo sapiens, UniProt P08238). As to the kind of experiment: γ-ATP sepharose binding assay, Hsp90β. Particulars: mahanine at 50 and 100 μM. On the procedure:
as §3, §4

A further data set concerns REH. As to the kind of experiment: MTT cell viability assay, REH. The data set is classed as cell-based, human. Particulars: 48 hrs. On the procedure:
as §1, §2
For orientation: Tetrazolium dyes change colour on reduction, which living cells bring about.

A further data set has as its system Molt-3. Nature of the data set: MTT cell viability assay, Molt-3. The data set is classed as cell-based, human. To be noted: Molt-3, 48 hrs. The method, then: as §1, §2
A further data set relates to Molt-4. Nature of the data set: MTT cell viability assay, Molt-4. The data set is classed as cell-based, human. Particulars: Molt-4, 48 hrs. The method, then: as §1, §2
The subject of a further data set is CEM C7. As to the kind of experiment: MTT cell viability assay, CEM C7. The data set is classed as cell-based, human. To be noted: CEM C7, 48 hrs. On the procedure: as §1, §2
The test system of the next data set is K562. Nature of the data set: MTT cell viability assay, K562. The data set is classed as cell-based, human. To be noted: K562, 48 hrs. On the procedure: as §1, §2
A further data set concerns U373MG. As to the kind of experiment: MTT cell viability assay, U373MG. In kind it is cell-based, human. Particulars: 48 hrs. The method, then: as §1, §2
The next data set relates to U87MG. As to the kind of experiment: MTT cell viability assay, U87MG. The data set is classed as cell-based, human. To be noted: 48 hrs. The method, then: as §1, §2
For a further data set, the system named is LN229. As to the kind of experiment: MTT cell viability assay, LN229. In kind it is cell-based, human. Particulars: LN229, 48 hrs. On the procedure:
as §1, §2

Another data set concerns T98G. Nature of the data set: MTT cell viability assay, T98G. The data set is classed as cell-based, human. Particulars: 48 hrs. The method, then:
as §1, §2

For the next data set, the system named is A172. Nature of the data set: MTT cell viability assay, A172. The data set is classed as cell-based, human. Particulars: A172, 48 hrs. On the procedure: as §1, §2
Another data set concerns MIAPaCa-2. As to the kind of experiment: MTT cell viability assay, MIAPaCa-2. The data set is classed as cell-based, human. To be noted: MIAPaCa-2, 48 hrs. The method, then:
as §1, §2

The test system of another data set is AsPC1. Nature of the data set: MTT cell viability assay, AsPC1. The data set is classed as cell-based, human. Particulars: AsPC1, 48 hrs. On the procedure: as §1, §2
The next data set relates to Panc1. Nature of the data set: MTT cell viability assay, Panc1. The data set is classed as cell-based, human. To be noted: Panc1, 48 hrs. The method, then: as §1, §2
Another data set relates to Panc10.05. Nature of the data set: MTT cell viability assay, Panc10.05. The data set is classed as cell-based, human. Particulars: Panc10.05, 48 hrs. The method, then:
as §1, §2

A further data set deals with A549. Nature of the data set: MTT cell viability assay, A549. In kind it is cell-based, human. To be noted: A549, 48 hrs. The method, then:
as §1, §2

The subject of a further data set is NCIH23. As to the kind of experiment: MTT cell viability assay, NCIH23. To be noted: NCIH23, 48 hrs. In kind it is cell-based, human. The method, then: as §2
The next data set relates to HCT116. Nature of the data set: MTT cell viability assay, HCT116. The data set is classed as cell-based, human. Particulars: HCT116, 48 hrs. The method, then: as §1, §2
The subject of another data set is SW480. Nature of the data set: MTT cell viability assay, SW480. The data set is classed as cell-based, human. To be noted: SW480, 48 hrs. On the procedure: as §1, §2
In data set [3] the test system is HeLa. Nature of the data set: MTT cell viability assay, HeLa. The data set is classed as cell-based, human. Particulars: 48 hrs. The method, then:
as §1, §2

Another data set deals with Vero. Nature of the data set: MTT cell viability assay, Vero normal cells. In kind it is cell-based, African monkey. Particulars: Vero normal cell line, 48 hrs.
The subject of data set [4] is glioma cells (U87MG, U373MG, LN229, A172 and T98G). As to the kind of experiment: MTT assay, panel of glioma cell lines. The data set is classed as cell-based, human. To be noted: range over U87MG, 48 hr, read-out: IC50 values against different glioma cell lines. The method, then:
as §1, §2

For a further data set, the system named is cancer cell lines. Nature of the data set: MTT assay, pooled cancer cell lines of several cancer types. To be noted: 48 hr. The data set is classed as cell-based, human. On the procedure: as §1, §2
Data set [5] in a line: In vivo bioavailability after oral feeding. Also on record: species or system Balb/c mice. To be noted: mouse, in vivo, po. On the procedure: EtOAc extract of Murraya koenigii was orally feeded to normal healthy Balb/c (100 mg/kg body weight) and blood was collected from retro orbital plexus after 30 min interval by glass capillary. Control blood was collected from the mice before the […] of extract. The Institutional Animal Ethical Committee had approved the study. Blood serum was isolated and the serum protein was separated by centrifugation in ice-cold acetone. Supernatant was evaporated to dryness and residual part was dissolved in minimum volume of MeOH and injected into the HPLC column.

“And” between values parts separate entries of the source, which are not always exact repeats. Equal entries are not always repeated. “Also recorded” adds a separate entry of the source. Where two headings read alike, the source gives them in different places.

Hsp90β, sequence (P08238 whole entry): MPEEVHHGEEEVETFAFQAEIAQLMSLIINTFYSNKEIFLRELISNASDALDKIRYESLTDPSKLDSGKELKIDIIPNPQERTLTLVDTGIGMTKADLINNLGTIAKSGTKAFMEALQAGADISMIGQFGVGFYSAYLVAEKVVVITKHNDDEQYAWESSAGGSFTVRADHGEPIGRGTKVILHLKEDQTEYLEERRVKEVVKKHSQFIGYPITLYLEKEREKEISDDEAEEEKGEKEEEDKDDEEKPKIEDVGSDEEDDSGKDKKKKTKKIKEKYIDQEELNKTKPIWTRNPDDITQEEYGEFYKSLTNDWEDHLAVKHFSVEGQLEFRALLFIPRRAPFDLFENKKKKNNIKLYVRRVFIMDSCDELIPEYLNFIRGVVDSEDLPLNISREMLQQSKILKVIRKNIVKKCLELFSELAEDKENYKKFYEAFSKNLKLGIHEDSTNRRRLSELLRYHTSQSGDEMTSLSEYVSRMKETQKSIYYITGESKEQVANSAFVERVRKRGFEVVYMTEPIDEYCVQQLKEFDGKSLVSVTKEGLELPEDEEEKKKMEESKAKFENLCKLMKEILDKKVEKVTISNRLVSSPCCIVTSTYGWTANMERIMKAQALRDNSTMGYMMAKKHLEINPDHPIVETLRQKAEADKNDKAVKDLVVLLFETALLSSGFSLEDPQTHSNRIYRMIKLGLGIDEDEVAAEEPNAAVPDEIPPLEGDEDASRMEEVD
Method for ME180: as §5

In the case of `CC(=O)O[C@H]1C(=O)[C@@]2(C)[C@H]([C@H](OC(=O)c3ccccc3)[C@]3(O)C[C@H](OC(=O)[C@H](O)[C@@H](NC(=O)c4ccccc4)c4ccccc4)C(C)=C1C3(C)C)[C@]1(OC(C)=O)CO[C@@H]1C[C@@H]2O` [Paclitaxel, paclitaxel, reference compound], the “apoptosis (7-AAD)” value with HeLa [1] (paclitaxel 10 μM alone) is recorded as 16.19%; in the data set on ME180, 18.21%.
For `COc1ccc2c(c1)[nH]c1c3c(c(C)cc12)OC(C)(CCC=C(C)C)C=C3` (stereo not shown) [O-methylated mahanine], the “cytotoxicity (activity in words)” value in data set [2] is “inactive; also recorded: more or less inactive”.
Consider “17-allylamino, 17-demethoxygeldanamycin [17AAG, reference compound]”, for which the “effect on ATP binding to purified Hsp90” value at Hsp90α and on Hsp90β was “easily hindered the ATP binding” in each case.
In the data set with REH, C20-C21 epoxy mahanine displayed an IC50 of 18.4 ± 1.1 µM.
Take `CC(C)=CCCC1(C)C=Cc2c(c(C)cc3c2[nH]c2ccccc23)O1` (stereo not shown) [Mahanimbine, mahanimbine]: the IC50 in the data set on Molt-3 stood at 22.6 ± 0.6 µM; in the data set on Molt-4, 28 ± 0.2 µM; in the data set on CEM C7 it was 27.4 ± 0.3 µM; in the data set with REH, 24.3 ± 0.7 µM; in the data set on K562 it was 25.1 ± 0.1 µM; in the data set with U373MG, 41.2 ± 0.25 µM. Besides, the IC50 with U87MG is 42.6 ± 0.4 µM; in the data set on LN229, 46.3 ± 0.1 µM; with T98G, 43.6 ± 0.2 µM; with A172, 38.4 ± 0.8 µM; with MIAPaCa-2, 35.2 ± 0.1 µM; in the data set with AsPC1, 31.75 ± 0.2 µM. Moreover, the IC50 in the data set on Panc1 stood at 32.8 ± 0.1 µM; with Panc10.05, 38.2 ± 0.1 µM; in the data set with A549 it was 37 ± 0.1 µM; in the data set on NCIH23 it was 31.8 ± 0.2 µM; with HCT116 it was 33.5 ± 0.3 µM; in the data set with SW480 it was 36.4 ± 0.5 µM. The IC50 was 34.8 ± 0.1 µM in the data set on HeLa [3]; 36 µM in the data set with HeLa [3] (listed as Mahanimbin); more than 100 µM in the data set with Vero; 38 to 47 µM in data set [4]; 10 to 20 µM in the data set with cancer cell lines (range over glioma and cervical cancer cell lines, read-out: IC50, glioma and cervical cancer cells); 20 to 45 µM and 30 to 50 µM in the data set on cancer cell lines (range over leukemia, glioma, cervical, pancreatic, colon and lung cancer lines, MTT, read-out: IC50, cell lines of different cancer types). Further, the “secondary metabolites in blood (mass spectroscopy)” value in data set [5] is given as “no production of secondary metabolites”. The “time to appearance in blood circulation after oral administration” value in data set [5] is not above 30 min.
In the case of `N.N.[Cl][Pt][Cl]` [Cisplatin, cisplatin], the “apoptosis (7-AAD)” value in the data set with HeLa [1] (cisplatin 40 μM alone) is given as approximately 7%.
On to `CC(C)=CCCC1(C)C=Cc2c(c(C)cc3c4ccccc4n(C)c23)O1` (stereo not shown) [N-methylated mahanimbine], for which the “cytotoxicity (activity in words)” value in data set [2] is “inactive; also recorded: more or less inactive”.
